Assay [1] relates to PAF-induced platelet aggregation. Description: Inhibitory effect on PAF-induced platelet aggregation. Type of assay: cell-based. As to conditions: rabbit PRP; PAF 1×10^-8 M, test concentration not readable. The protocol: In the same manner as above, a platelet rich plasma (PRP) and a platelet poor plasma (PPP) were prepared for performing the following experiment.
(§1) PRP was diluted with PPP to give a sample containing platelets at 300,000/mm^3.
10 μl of a test solution was added to 180 μl of PRP. To the resulting mixture was added 10 μl of a solution of a commercially available PAF (No.P-4904, available from Sigma Corp.) to give a concentration of 1×10^-8 M, and aggregation was observed. For the preparation of the test solution and the PAF solution, a saline solution containing 0.25% bovine serum albumin was employed.
The effect of the test sample for suppressing aggregation was obtained in terms of a degree of suppression of the maximum aggregation in the control PRP caused by the PAF.

For the next assay, the system named is Male Wistar rats. The experiment in a line: Blood pressure reducing action: intravenous injection (MABP50). The assay is classed as in vivo, rat. As to conditions: anesthetized male Wistar rats, injection in saline with 0.25% bovine serum albumin, from dose-response curve; for ED (50 mmHg): Rattus norvegicus, iv, read-out: MABP50 (dose required for reducing a mean blood pressure by 50 mmHg). How it is done: Male Wistar rats (mean body weight: 420 g) were anesthetized by intraperitoneal injection of 50 mg/kg of pentobarbital sodium, and their blood pressures were measured at left femoral artery. Subsequently, a compound to be tested was dissolved in a saline solution containing 0.25% bovine serum albumin and injected into the rat through the right femoral artery.
A dose-response curve was prepared from the obtained values for each of the following compounds of the present invention to determine a dose required for reducing a mean blood pressure by 50 mmHg (MABP50).

The next assay has as its system platelet. The experiment in a line: Platelet aggregation action in platelet rich plasma. The assay is classed as cell-based. As to conditions: rabbit PRP, 300,000 platelets/mm^3, final concentration 2×10^-10 to 2×10^-4 M, unit inferred. How it is done:
A male Japanese white rabbit was anesthetized by pentobarbital, and a blood was collected in aqueous 3.13% sodium citrate solution at its carotid. The blood containing 1/10 volume ratio of the sodium citrate solution was treated in a conventional manner to give a platelet rich plasma (PRP) and a platelet poor plasma (PPP) for performing the following experiment.
as §1
Aggregation of platelet was determined by means of Platelet Aggregation Tracer PAT-4A(available from Niko Bioscience Co., Ltd., Japan). 10 μl of a test solution was added to 190 μl of PRP to give a final concentration of 2×10^-10 to 2×10^-4 M, and an aggregation curve is recorded. For the preparation of the test solution, a saline solution containing 0.25% bovine serum albumin.
According to the aggregation curve obtained for each of the following compound of the present invention, following EC50 value was obtained.

Assay [2] deals with Male spontaneously hypertensive rats. Description: Blood pressure reducing action: oral administration. Type of assay: in vivo, rat. How it is done:
Male spontaneously hypertensive rats (average body weight: 359 g) were anesthetized with ether. Blood pressure was measured for each rat through cannulation at its left femoral artery. A compound to be tested was dissolved in a distilled water and the resulting aqueous solution was administered orally.

Where [3] appears, read: Oryctolagus cuniculus, Platelet.

Consider “2-Acetyloxy-3-hexadecyloxypropyl 1-(1-fluorophenyl)-2-methylisoquinolinio-3-ylmethyl phosphate”, for which, in assay [1], the “degree of suppression of the maximum aggregation caused by the PAF” value (from here on “degree”) came out at 100%.

With `CCCCCCCCCCCCCCCCOCC(COP(=O)([O-])OCC1CSC(c2ccccc2)[N+]1(C)C)OC(C)=O` (single isomer, unassigned) [S(Product A), 2-acetyloxy-3-hexadecyloxypropyl 3,3-dimethyl-2-phenyl-1,3-thiazolidinio-4-ylmethyl phosphate], the “MABP50 (dose required for reducing a mean blood pressure by 50 mmHg)” value in the assay on Male Wistar rats was 0.16 µg/kg. In the assay on platelet (setting [3]), this compound yielded an EC50 of 0.67 µM.

In the case of `CCCCCCCCCCCCCCCCOCC(COP(=O)([O-])OCC1CSC(c2ccccc2)[N+]1(C)C)OC(C)=O` (single isomer, unassigned) [S(Product B), 2-acetyloxy-3-hexadecyloxypropyl 3,3-dimethyl-2-phenyl-1,3-thiazolidinio-4-ylmethyl phosphate], the “MABP50 (dose required for reducing a mean blood pressure by 50 mmHg)” value in the assay on Male Wistar rats was found to be 0.35 µg/kg. The compound further gave an EC50 with platelet of 0.74 µM.

For `CCCCCCCCCCCCCCCCOCC(COP(=O)([O-])OC1C[N+]2(C)CCC1CC2)OC(C)=O` (stereo not drawn) [A, 2-acetyloxy-3-hexadecyloxypropyl 1-methyl-1-azoniabicyclo[2,2,2]-3-octyl phosphate], the ED (50 mmHg) in the assay with Male Wistar rats was 0.005 µg/kg. This compound also gave an EC50 in the assay with platelet (setting [3]) of 0.00076 µM.

`CCCCCCCCCCCCCCCCOCC(COP(=O)([O-])OC1CC2CCC(C1)[N+]2(C)C)OC(C)=O` (stereo not drawn) [B, 2-acetyloxy-3-hexadecyloxypropyl endo-8,8-dimethyl-8-azoniabicyclo[3,2,1]-3-octyl phosphate]: in the assay with Male Wistar rats, the ED (50 mmHg) stood at 0.12 µg/kg. Further, in the assay with platelet (setting [3]), a half-maximal effect (EC50) was put at 0.0023 µM.

For the compound `CCCCCCCCCCCCCCCCOC(C)C(COP(=O)([O-])OC1C[N+]2(C)CCC1CC2)OC(C)=O` (stereo not drawn) [C, 2-acetyloxy-3-hexadecyloxybutyl 1-methyl-1-azoniabicyclo[2,2,2]-3-octylphosphate], the ED (50 mmHg) in the assay on Male Wistar rats came to 0.099 µg/kg. The “Change of Blood Pressure About 30 min. after Administration” value (“Change” below) in assay [2] (3 mg/kg) is listed as -64.5 mmHg. The same compound showed an EC50 in the assay with platelet (setting [3]) of 0.0052 µM.

For `CCCCCCCCCCCCCCCCOCC(COP(=O)([O-])OCC1CCCC[N+]1(C)C)OC(C)=O` (stereo not drawn) [Compound E, 2-acetyloxy-3-hexadecyloxypropyl 1,1-dimethylpiperidinio-2-ylmethyl phosphate], the ED (50 mmHg) in the assay on Male Wistar rats came to 0.132 µg/kg. In the assay with platelet (setting [3]), it took 0.01 µM to reach a half-maximal effect (EC50).

For `CCCCCCCCCCCCCCCCOCC(COP(=O)([O-])OCC1CCC[N+]1(C)C)OC(C)=O` (stereo not drawn) [D, 2-acetyloxy-3-hexadecyloxypropyl 1,1-dimethylpyrrolidinio-2-ylmethyl phosphate], the ED (50 mmHg) with Male Wistar rats was 0.024 µg/kg. This compound also gave an EC50 with platelet (setting [3]) of 0.0005 µM.

Turning to `CCCCCCCCCCCCCCCCOCC(COP(=O)([O-])OCC1CCC[N+](C)(C)C1)OC(C)=O` (stereo not drawn) [F, 2-acetyloxy-3-hexadecyloxypropyl 1,1-dimethylpiperidinio-3-ylmethyl phosphate], the ED (50 mmHg) in the assay on Male Wistar rats came to 0.058 µg/kg. In the assay on platelet (setting [3]), this compound registered an EC50 of 0.0015 µM.

On to `CCCCCCCCCCCCCCCCOCC(COP(=O)([O-])OCC1CC[N+](C)(C)CC1)OC(C)=O` (stereo not drawn) [G, 2-acetyloxy-3-hexadecyloxypropyl 1,1-dimethylpiperidinio-4-ylmethyl phosphate], for which the ED (50 mmHg) in the assay on Male Wistar rats worked out at 0.97 µg/kg. The compound also showed an EC50 in the assay on platelet (setting [3]) of 0.09 µM.

For `CCCCCCCCCCCCCCCCOCC(COP(=O)([O-])OCCC1CCC[N+]1(C)C)OC(C)=O` (stereo not drawn) [H, 2-acetyloxy-3-hexadecyloxypropyl 2-(1,1-dimethylpyrrolidinio-2-yl)ethylphosphate], the ED (50 mmHg) in the assay on Male Wistar rats worked out at 0.058 µg/kg. A half-maximal effect in the assay with platelet (setting [3]) (EC50) was put at 0.0024 µM.

Regarding `CCCCCCCCCCCCCCCCOC(C)C(COP(=O)([O-])OC(c1ccccc1)C1CCC[N+]1(C)C)OCc1ccccc1` (stereo not drawn) [I, 2-Benzyloxy-3-hexadecyloxybutyl erythro-1,1-dimethylpyrrolidinio-2-ylphenylmethyl phosphate], the “degree” value in assay [1] worked out at 100%.

Turning to `CCCCCCCCCCCCCCCCOCC(COP(=O)([O-])OC(c1ccccc1)C1CCC[N+]1(C)C)OCc1ccccc1` (stereo not drawn) [J, 2-Benzyloxy-3-hexadecyloxypropyl erythro-1,1-dimethylpyrrolidinio-2-ylphenylmethyl phosphate], the “degree” value in assay [1] is reported as 99%.

`CCCCCCCCCCCCCCCCOCC(COP(=O)([O-])OC(c1ccccc1)C1CCC[N+]1(C)C)OCc1ccccc1` (stereo not drawn) [K, 2-Benzyloxy-3-hexadecyloxypropyl threo-1,1-dimethylpyrrolidinio-2-ylphenylmethyl phosphate]: the “degree” value in assay [1] came out at 73%.

Take `CCCCCCCCCCCCCCCCOCC(COP(=O)([O-])OCC1CCCC[N+]1(C)C)OCc1ccccc1` (stereo not drawn) [L, 2-Benzyloxy-3-hexadecyloxypropyl 1,1-dimethylpiperidinio-2-ylmethyl phosphate]: the “degree” value in assay [1] came to 55%.

Consider `CCCCCCCCCCCCCCCCOCC(COP(=O)([O-])OC(c1ccccc1)C1CCC[N+]1(C)C)OC(C)=O` (stereo not drawn) [M, 2-Acetyloxy-3-hexadecyloxypropyl erythro-1,1-dimethylpyrrolidinio-2-ylphenylmethyl phosphate], for which the “degree” value in assay [1] worked out at 100%.

Regarding `CCCCCCCCCCCCCCCCOCC(COP(=O)([O-])OCC1Cc2ccccc2C[N+]1(C)C)OC(C)=O` (stereo not drawn) [O, 2-acetyloxy-3-hexadecyloxypropyl 2,2-dimethyl-1,2,3,4-tetrahydroisoquinolinio-3-ylmethyl phosphate], the ED (50 mmHg) in the assay with Male Wistar rats was 3.2 µg/kg. This compound gave a concentration giving a half-maximal response (EC50) with platelet (setting [3]) of 0.18 µM.

Regarding `CCCCCCCCCCCCCCCCOCC(COP(=O)([O-])OCC1CCc2ccccc2[N+]1(C)C)OC(C)=O` (stereo not drawn) [P, 2-acetyloxy-3-hexadecyloxypropyl 1,1-dimethyl-1,2,3,4-tetrahydroquinolinio-2-ylmethyl phosphate], the ED (50 mmHg) with Male Wistar rats came to 0.11 µg/kg. Besides, in the assay on platelet (setting [3]), it took 0.05 µM to reach a half-maximal effect (EC50).

On to `CCCCCCCCCCCCCCCCOCC(COP(=O)([O-])OCC1CSC[N+]1(C)C)OC(C)=O` (stereo not drawn) [Q, 2-acetyloxy-3-hexadecyloxypropyl 3,3-dimethyl-1,3-thiazolidinio-4-ylmethyl phosphate], for which, in the assay on Male Wistar rats, the ED (50 mmHg) is 0.032 µg/kg. Besides, the EC50 in the assay on platelet (setting [3]) came to 0.00052 µM.

For the compound `CCCCCCCCCCCCCCCCOCC(COP(=O)([O-])OCC1=CCC[N+](C)(C)C1)OC(C)=O` (stereo not drawn) [R, 2-acetyloxy-3-hexadecyloxypropyl 1,1-dimethyl-1,2,5,6-tetrahydropyridinio-3-ylmethyl phosphate], the ED (50 mmHg) in the assay on Male Wistar rats came to 0.024 µg/kg.

Turning to `CCCCCCCCCCCCCCCCOCC(COP(=O)([O-])OCCc1sc[n+](C)c1C)OC(C)=O` (stereo not drawn) [T, 2-acetyloxy-3-hexadecyloxypropyl 3,4-dimethylthiazolio-5-ylethyl phosphate], the ED (50 mmHg) in the assay with Male Wistar rats was determined as 0.00023 µg/kg. For the same compound, the “Change” value in assay [2] (10 mg/kg) is -35.3 mmHg. In addition, in the assay with platelet (setting [3]), the response was half-maximal at 0.0032 µM (EC50).

Regarding `CCCCCCCCCCCCCCCCOCC(COP(=O)([O-])OCCc1ccc[n+](C)c1)OC(C)=O` (stereo not drawn) [U, 2-acetyloxy-3-hexadecyloxypropyl 1-methylpyridinio-3-ylethyl phosphate], in the assay on Male Wistar rats, the “MABP50 (dose required for reducing a mean blood pressure by 50 mmHg)” value stood at 0.195 µg/kg. The same compound had an EC50 in the assay on platelet of 0.085 µM.

On to `CCCCCCCCCCCCCCCCOC(C)C(COP(=O)([O-])OCC1=CCC[N+](C)(C)C1)OC(C)=O` (stereo not drawn) [V, 2-acetyloxy-3-hexadecyloxybutyl 1,1-dimethyl-1,2,5,6-tetrahydropyridinio-3-ylmethyl phosphate], for which the ED (50 mmHg) in the assay on Male Wistar rats came out at 0.64 µg/kg. In addition, the “Change” value in assay [2] (3 mg/kg) is reported as -49.0 mmHg. In addition, the concentration giving a half-maximal response (EC50) in the assay with platelet (setting [3]) worked out at 0.077 µM.

Regarding `CCCCCCCCCCCCCCCCOC(C)C(COP(=O)([O-])OCCc1sc[n+](C)c1C)OC(C)=O` (stereo not drawn) [W, 2-acetyloxy-3-hexadecyloxybutyl 3,4-dimethylthiazolio-5-ylethyl phosphate], the ED (50 mmHg) with Male Wistar rats worked out at 0.067 µg/kg. Moreover, in assay [2] (1 mg/kg), the “Change” value is listed as -36.0 mmHg. In the assay with platelet (setting [3]), this compound gave an EC50 of 0.073 µM.

A word on the EC50: it is the concentration needed to bring the measured effect to its halfway point.

Values taken from patent US4962096A, “Heterocyclic glycerol derivatives and their use as anti-hypertensive agents” (Nippon Chemiphar Co., Ltd., priority 1987, dated 1990).
